Data taken from ChEMBL document CHEMBL1141638, “Influence of sulfur oxidation state and steric bulk upon trifluoromethyl ketone (TFK) binding kinetics to carboxylesterases and fatty acid amide hydrolase (FAAH)” (Bioorg Med Chem, 2008).

How the values were obtained:
[1] = molecular target: T1, Liver carboxylesterase 1 (Homo sapiens, UniProt P23141); assay: Inhibition of human recombinant carboxylesterase 1 after 15 mins
T1 sequence (P23141 whole entry): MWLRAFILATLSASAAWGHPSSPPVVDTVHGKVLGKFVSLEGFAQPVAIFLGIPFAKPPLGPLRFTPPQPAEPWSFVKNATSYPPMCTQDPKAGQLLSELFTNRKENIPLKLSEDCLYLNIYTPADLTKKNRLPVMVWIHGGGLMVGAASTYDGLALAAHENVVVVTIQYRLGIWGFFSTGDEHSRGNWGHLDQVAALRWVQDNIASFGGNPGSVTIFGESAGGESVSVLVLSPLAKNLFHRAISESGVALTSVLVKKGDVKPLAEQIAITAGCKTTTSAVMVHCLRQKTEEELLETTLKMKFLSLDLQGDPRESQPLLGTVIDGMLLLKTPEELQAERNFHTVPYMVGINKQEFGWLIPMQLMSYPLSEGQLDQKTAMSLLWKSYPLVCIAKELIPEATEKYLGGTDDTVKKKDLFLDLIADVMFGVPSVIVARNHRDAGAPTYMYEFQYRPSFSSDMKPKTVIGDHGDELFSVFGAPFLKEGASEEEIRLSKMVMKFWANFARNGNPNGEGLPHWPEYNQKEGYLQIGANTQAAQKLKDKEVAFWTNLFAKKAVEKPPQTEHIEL

[2] = Inhibition of rabbit liver carboxylesterase after 5 mins; set-up: species or system Oryctolagus cuniculus
[3] = Inhibition of rabbit liver carboxylesterase after 15 mins; set-up: species or system Oryctolagus cuniculus
[4] = molecular target: T2, Juvenile hormone esterase (Manduca sexta, UniProt Q9GPG0); assay: Inhibition of Manduca sexta juvenile hormone esterase
T2 sequence (Q9GPG0 whole entry): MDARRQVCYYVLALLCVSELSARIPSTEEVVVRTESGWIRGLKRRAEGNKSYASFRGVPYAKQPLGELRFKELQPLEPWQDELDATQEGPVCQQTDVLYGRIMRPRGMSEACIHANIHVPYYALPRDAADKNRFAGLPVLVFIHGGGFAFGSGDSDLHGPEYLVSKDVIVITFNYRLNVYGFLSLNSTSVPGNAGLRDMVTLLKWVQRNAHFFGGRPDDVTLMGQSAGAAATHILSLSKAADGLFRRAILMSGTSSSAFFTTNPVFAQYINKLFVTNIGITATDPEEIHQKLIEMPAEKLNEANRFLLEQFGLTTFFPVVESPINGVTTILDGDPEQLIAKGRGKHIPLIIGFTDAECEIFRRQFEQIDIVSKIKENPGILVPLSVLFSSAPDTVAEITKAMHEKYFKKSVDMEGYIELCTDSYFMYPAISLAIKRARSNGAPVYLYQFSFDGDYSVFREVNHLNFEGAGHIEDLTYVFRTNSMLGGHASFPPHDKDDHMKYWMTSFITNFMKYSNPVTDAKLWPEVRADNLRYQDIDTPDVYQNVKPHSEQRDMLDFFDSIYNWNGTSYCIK

[5] = Inhibition of Manduca sexta juvenile hormone esterase […] mutant
[6] = molecular target: T3, Fatty-acid amide hydrolase 1 (Homo sapiens, UniProt O00519); assay: Inhibition of human recombinant FAAH after 5 mins
T3 sequence (O00519 whole entry): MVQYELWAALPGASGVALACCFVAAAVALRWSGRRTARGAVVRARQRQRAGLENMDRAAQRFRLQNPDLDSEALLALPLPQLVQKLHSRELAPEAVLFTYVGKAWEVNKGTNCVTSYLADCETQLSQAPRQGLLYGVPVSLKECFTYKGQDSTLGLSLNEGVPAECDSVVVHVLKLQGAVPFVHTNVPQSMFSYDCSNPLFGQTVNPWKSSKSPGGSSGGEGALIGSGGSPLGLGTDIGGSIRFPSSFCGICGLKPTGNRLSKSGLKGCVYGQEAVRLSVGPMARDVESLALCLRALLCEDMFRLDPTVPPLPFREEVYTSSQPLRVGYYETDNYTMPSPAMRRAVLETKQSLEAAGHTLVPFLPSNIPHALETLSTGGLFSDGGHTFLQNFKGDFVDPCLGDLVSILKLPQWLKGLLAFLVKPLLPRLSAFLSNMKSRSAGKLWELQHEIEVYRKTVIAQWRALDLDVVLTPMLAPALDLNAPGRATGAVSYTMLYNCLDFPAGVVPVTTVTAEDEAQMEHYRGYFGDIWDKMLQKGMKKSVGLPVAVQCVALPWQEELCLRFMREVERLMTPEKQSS

[7] = molecular target: T3, Fatty-acid amide hydrolase 1; assay: Inhibition of human recombinant FAAH after 15 mins
[8] = molecular target: T4, Liver carboxylesterase (Sus scrofa, UniProt Q29550); assay: Inhibition of pig liver carboxylesterase after 5 mins
T4 sequence (Q29550 whole entry): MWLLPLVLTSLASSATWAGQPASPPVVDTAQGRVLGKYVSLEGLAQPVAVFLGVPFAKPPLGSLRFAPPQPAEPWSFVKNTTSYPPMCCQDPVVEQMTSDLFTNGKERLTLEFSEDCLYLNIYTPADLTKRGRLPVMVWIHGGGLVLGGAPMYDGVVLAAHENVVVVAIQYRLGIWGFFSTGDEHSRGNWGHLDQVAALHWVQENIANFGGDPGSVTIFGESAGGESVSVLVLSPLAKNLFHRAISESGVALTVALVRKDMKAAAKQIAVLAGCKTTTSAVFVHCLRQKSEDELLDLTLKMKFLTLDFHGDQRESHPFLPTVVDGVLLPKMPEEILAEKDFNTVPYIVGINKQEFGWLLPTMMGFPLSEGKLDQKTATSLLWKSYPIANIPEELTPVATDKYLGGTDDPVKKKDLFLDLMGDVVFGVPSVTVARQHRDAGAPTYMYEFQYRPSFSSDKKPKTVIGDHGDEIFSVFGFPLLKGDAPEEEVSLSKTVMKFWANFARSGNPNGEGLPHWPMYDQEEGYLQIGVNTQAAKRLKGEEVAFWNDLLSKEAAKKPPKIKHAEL

[9] = molecular target: T4, Liver carboxylesterase; assay: Inhibition of pig liver carboxylesterase after 15 mins
[10] = molecular target: T1, Liver carboxylesterase 1; assay: Inhibition of human recombinant carboxylesterase 1 after 5 mins

SMILES: CCCCCCCCSCC(=O)C(F)(F)F
- IC50 [1]: 13 nM
- IC50 [2]: 6.7 nM
- IC50 [3]: 1.9 nM
- IC50 [4]: 22 nM
- IC50 [5]: 330 nM
- IC50 [6]: 230 nM
- IC50 [7]: 300 nM
- IC50 [8]: 5.6 nM
- IC50 [9]: 2.4 nM
- IC50 [10]: 24 nM

SMILES: CCCCCCCC[S+]([O-])CC(=O)C(F)(F)F (stereo unspecified)
- IC50 [1]: 5.5 nM
- IC50 [2]: 16 nM
- IC50 [3]: 5 nM
- IC50 [6]: 6500 nM
- IC50 [7]: 13900 nM
- IC50 [8]: 200 nM
- IC50 [9]: 23 nM
- IC50 [10]: 30 nM

SMILES: CCCCCCCCCC[S+]([O-])CC(=O)C(F)(F)F (stereo unspecified)
- IC50 [6]: 760 nM
- IC50 [7]: 1350 nM
- IC50 [8]: 5.5 nM
- IC50 [9]: 3.2 nM

SMILES: CCCCCCCCCCS(=O)(=O)CC(=O)C(F)(F)F
- IC50 [6]: 2200 nM
- IC50 [7]: 3000 nM
- IC50 [8]: 63 nM
- IC50 [9]: 28 nM

SMILES: CCCC[S+]([O-])CC(=O)C(F)(F)F (stereo unspecified)
- IC50 [6]: > 40000 nM
- IC50 [7]: > 40000 nM
- IC50 [8]: 970 nM
- IC50 [9]: 270 nM

SMILES: CCCCCCCCCCSCC(=O)C(F)(F)F
- IC50 [6]: 120 nM
- IC50 [7]: 170 nM
- IC50 [8]: 2.2 nM
- IC50 [9]: 1.3 nM

SMILES: CCCCCC[S+]([O-])CC(=O)C(F)(F)F (stereo unspecified)
- IC50 [6]: > 40000 nM
- IC50 [7]: > 40000 nM
- IC50 [8]: 280 nM
- IC50 [9]: 33 nM

SMILES: CCCCCCCCCCCCS(=O)(=O)CC(=O)C(F)(F)F
- IC50 [6]: 250 nM
- IC50 [7]: 280 nM
- IC50 [8]: 37 nM
- IC50 [9]: 46 nM

SMILES: CCCCCCCCS(=O)(=O)CC(=O)C(F)(F)F
- IC50 [1]: 5.4 nM
- IC50 [2]: 55 nM
- IC50 [3]: 35 nM
- IC50 [6]: 14800 nM
- IC50 [7]: 22500 nM
- IC50 [8]: 830 nM
- IC50 [9]: 460 nM
- IC50 [10]: 18 nM

SMILES: O=C(C(=O)c1ccccc1)c1ccccc1 [BENZIL]
- IC50 [2]: 19 nM
- IC50 [3]: 29 nM
- IC50 [6]: > 40000 nM
- IC50 [7]: > 40000 nM
- IC50 [8]: 370 nM
- IC50 [9]: 830 nM

SMILES: CCCCSCC(=O)C(F)(F)F
- IC50 [6]: > 40000 nM
- IC50 [7]: > 40000 nM
- IC50 [8]: 20 nM
- IC50 [9]: 4.5 nM

SMILES: CCCCCCCCCCCC[S+]([O-])CC(=O)C(F)(F)F (stereo unspecified)
- IC50 [6]: 440 nM
- IC50 [7]: 600 nM
- IC50 [8]: 12 nM
- IC50 [9]: 8.6 nM

SMILES: CCCCCCSCC(=O)C(F)(F)F
- IC50 [6]: 1950 nM
- IC50 [7]: 2500 nM
- IC50 [8]: 7.5 nM
- IC50 [9]: 1.8 nM

SMILES: CCCCCCS(=O)(=O)CC(=O)C(F)(F)F
- IC50 [6]: > 40000 nM
- IC50 [7]: > 40000 nM
- IC50 [8]: 470 nM
- IC50 [9]: 100 nM

SMILES: CCCCCCCCCCC(=O)C(F)(F)F
- IC50 [1]: 30 nM
- IC50 [2]: 42 nM
- IC50 [3]: 14 nM
- IC50 [4]: 530 nM
- IC50 [5]: 1600 nM
- IC50 [6]: 1250 nM
- IC50 [7]: 1800 nM
- IC50 [8]: 25 nM
- IC50 [9]: 9.3 nM
- IC50 [10]: 65 nM

SMILES: CCCCCCCCCCCCSCC(=O)C(F)(F)F
- IC50 [6]: 84 nM
- IC50 [7]: 89 nM
- IC50 [8]: 12 nM
- IC50 [9]: 5.3 nM
